Measured values published in US12642794B2, “Dose regimens for use of LY3154207 in the treatment of dopaminergic CNS disorders” (Eli Lilly and Company, priority 2018, dated 2026).
Like-named read-outs stand apart in the source and are kept apart here.

Key:
[1] = HBEC Part A pharmacokinetics, healthy subjects; type: in vivo, human; conditions: for CLss/F / RAAUC(0-24) (accumulation ratio Day 14:Day 1) / RACmax (accumulation ratio Day 14:Day 1) / Cmax / AUC(0-t) / CL renal: geometric mean; for Cmax / AUC(0-t) / Tmax / CL renal: human, in vivo, oral; for AUC(0-t): read-out: AUC(0-24); for Tmax: read-out: tmax, median; for CL renal: read-out: CLr (renal clearance) (converted)
Experimental: In this randomized, double-blind, placebo-controlled, multiple ascending dose, parallel-group study, HBEC, healthy subjects (Part A) and participants with PD (Part B) received once-daily doses of LY3154207 (15, 30, 75, or 150 mg in Part A and up to 75 mg in Part B) or placebo for 14 days, as illustrated in FIG. 3.
Study outcomes included 24-hour ambulatory blood pressure monitoring (ABPM), treatment-emergent adverse events (TEAEs), and PK assessments in both healthy subjects and participants with PD, as well as Movement Disorder Society-United Parkinson's Disease Rating Scale (MDS-UPDRS) assessments to evaluate the impact of LY3154207 on motor function in participants with PD. The objective was to explore the safety, tolerability, and pharmacokinetics (PK) of multiple oral daily dosing of LY3154207 in healthy subjects (Part A) and in participants with PD (Part B).

healthy subjects = experiment: HBEA Part A single ascending dose study: adverse events, safety, tolerability; type: in vivo, human
Experimental: FIG. 1: Design of the study HBEA, a single ascending dose study of a D1 receptor positive allosteric modulator LY3154207 in healthy volunteers. aSafety review completed after each dose level prior to escalation. bDose escalation was terminated at 200 mg owing to cardiovascular effects. CSF=cerebrospinal fluid: LY=LY3154207: PBO=placebo: PK-pharmacokinetic.
HBEA is a single ascending dose study of a D1 receptor positive allosteric modulator LY3154207 in healthy volunteers. Study HBEA aims to determine the safety, tolerability, and peripheral and central pharmacokinetics (PK) of single ascending doses of LY3154207 in healthy subjects. Study HBEB aims to evaluate the effect of single-dose LY3154207 on sleep latency in sleep-deprived healthy male subjects as measured by a multiple sleep latency test (MSLT). HBEA was a Phase 1, 2-part, randomized, double-blind, placebo-controlled study in healthy males or females. Part A has a 3-period crossover design with 2 alternating, single-dose escalating cohorts, and subjects were randomized to LY3154207 (n=6) or placebo (n=3) in each cohort in each dosing period. Part B has a single-period, single-dose, 2-cohort design with cerebrospinal fluid (CSF) sampling, and subjects were randomized to LY3154207 (n=8) or placebo (n=4) in each cohort.
This is a phase 1, SAD, crossover design of LY3154207 in healthy subjects conducted in 2 alternating cohorts with dose escalation. Subjects are dosed at 25 mg, 75 mg, 100 mg, 150 mg and 200 mg or placebo. Safety parameters assessed include adverse events (AEs), safety laboratories, vital signs, ambulatory blood pressure monitoring (ABPM) and electrocardiogram (ECG). Subjects provide blood samples after dosing to measure plasma concentrations of LY3154207 for assessment of PK.

In the case of `C[C@H]1c2cccc(CCC(C)(C)O)c2C[C@H](CO)N1C(=O)Cc1c(Cl)cccc1Cl` [LY3154207], the “accumulation upon repeated dosing” value [1] is reported as “minimal accumulation”, the CLss/F ([1]; Day 14, LY 15 mg (N = 9)) is reported as 30.5 L/h and the CLss/F ([1]; Day 14, LY 30 mg (N = 9)) is reported as 24.2 L/h. For the same molecule, the CLss/F ([1]; Day 14, LY 75 mg (N = 9)) was 33.8 L/h, the CLss/F ([1]; Day 14, LY 150 mg (N = 9)) was 34.5 L/h and the “RAAUC(0-24) (accumulation ratio Day 14:Day 1)” value ([1]; LY 15 mg (N = 9)) was 1.34. For the same molecule, the “RACmax (accumulation ratio Day 14:Day 1)” value ([1]; LY 15 mg (N = 9)) was 1.18, the “RAAUC(0-24) (accumulation ratio Day 14:Day 1)” value ([1]; LY 30 mg (N = 9)) was 1.03 and the “RACmax (accumulation ratio Day 14:Day 1)” value ([1]; LY 30 mg (N = 9)) was 1.12. The “RAAUC(0-24) (accumulation ratio Day 14:Day 1)” value ([1]; LY 75 mg (N = 9)) was 0.99, the “RACmax (accumulation ratio Day 14:Day 1)” value ([1]; LY 75 mg (N = 9)) was 1.13 and the “RAAUC(0-24) (accumulation ratio Day 14:Day 1)” value ([1]; LY 150 mg (N = 9)) was 0.93. For the same molecule, the “RACmax (accumulation ratio Day 14:Day 1)” value ([1]; LY 150 mg (N = 9)) was 0.92, the Cmax ([1]; Day 14, LY 15 mg (N = 9)) was 66.2 ng/mL and the AUC(0-t) ([1]; Day 14, LY 15 mg (N = 9)) was 492 ng·h/mL. It also gave a Tmax ([1]; Day 14, LY 15 mg (N = 9)) of 2 h, a Cmax ([1]; Day 14, LY 30 mg (N = 9)) of 149 ng/mL and an AUC(0-t) ([1]; Day 14, LY 30 mg (N = 9)) of 1240 ng·h/mL. For the same molecule, the CL renal ([1]; Day 14, LY 30 mg (N = 9)) was 0.06 mL/min, the Tmax ([1]; Day 14, LY 30 mg (N = 9)) was 2 h and the Cmax ([1]; Day 14, LY 75 mg (N = 9)) was 307 ng/mL. The AUC(0-t) ([1]; Day 14, LY 75 mg (N = 9)) was 2220 ng·h/mL, the CL renal ([1]; Day 14, LY 75 mg (N = 9)) was 0.04 mL/min and the Tmax ([1]; Day 14, LY 75 mg (N = 9)) was 2 h. The Cmax ([1]; Day 14, LY 150 mg (N = 9)) was 500 ng/mL, the AUC(0-t) ([1]; Day 14, LY 150 mg (N = 9)) was 4350 ng·h/mL and the CL renal ([1]; Day 14, LY 150 mg (N = 9)) was 0.0567 mL/min. For the same molecule, the Tmax ([1]; Day 14, LY 150 mg (N = 9)) was 3 h, the “serious or severe AEs” value (healthy subjects; HBEA) was “No serious or severe AEs occurred” and the “treatment emergent AEs that occurred at doses ≥100 mg, of the total of 111” value (healthy subjects; HBEA Part A, doses ≥100 mg) was 69/111. The “severity of treatment-related AEs” value (healthy subjects; HBEA Part A, occurred primarily at doses ≥100 mg) was “mostly mild”, the tolerability (healthy subjects; HBEA, increase in AEs associated with central activation at doses ≥75 mg) was “well tolerated” and the “frequency of activating adverse events such as insomnia” value (healthy subjects; above the 75 mg dose) was “substantial increase in frequency”. The safety profile (healthy subjects; dose range of 25-200 mg) was “acceptable safety profile”, the safety and tolerability (healthy subjects; doses ≤75 mg) was “acceptable safety and tolerability” and the “Anxiety, treatment-related AE, n subjects” value (healthy subjects; single dose 25 mg (N = 6)) was 0 n. The “Decreased appetite, treatment-related AE, n subjects” value (healthy subjects; single dose 25 mg (N = 6)) was 0 n, the “Dizziness, treatment-related AE, n subjects” value (healthy subjects; single dose 25 mg (N = 6)) was 0 n and the “Dysgeusia, treatment-related AE, n subjects” value (healthy subjects; single dose 25 mg (N = 6)) was 0 n. For the same molecule, the “Energy increased, treatment-related AE, n subjects” value (healthy subjects; single dose 25 mg (N = 6)) was 0 n, the “Feeling hot, treatment-related AE, n subjects” value (healthy subjects; single dose 25 mg (N = 6)) was 0 n and the “Headache, treatment-related AE, n subjects” value (healthy subjects; single dose 25 mg (N = 6)) was 0 n. The “Insomnia, treatment-related AE, n subjects” value (healthy subjects; single dose 25 mg (N = 6)) was 0 n, the “Nausea, treatment-related AE, n subjects” value (healthy subjects; single dose 25 mg (N = 6)) was 0 n and the “Treatment-related AEs, (%)” value (healthy subjects; single dose 25 mg (N = 6)) was 16.7%. The “Treatment-related AEs, [events]” value (healthy subjects; single dose 25 mg (N = 6)) was “[1] events”, the “Anxiety, treatment-related AE, n subjects” value (healthy subjects; single dose 75 mg (N = 6)) was 0 n and the “Decreased appetite, treatment-related AE, [events]” value (healthy subjects; single dose 75 mg (N = 6)) was 1 [1] events. For the same molecule, the “Decreased appetite, treatment-related AE, n subjects” value (healthy subjects; single dose 75 mg (N = 6)) was 1 [1] n, the “Dizziness, treatment-related AE, [events]” value (healthy subjects; single dose 75 mg (N = 6)) was 2 [2] events and the “Dizziness, treatment-related AE, n subjects” value (healthy subjects; single dose 75 mg (N = 6)) was 2 [2] n. The “Dysgeusia, treatment-related AE, n subjects” value (healthy subjects; single dose 75 mg (N = 6)) was 0 n, the “Energy increased, treatment-related AE, n subjects” value (healthy subjects; single dose 75 mg (N = 6)) was 0 n and the “Feeling hot, treatment-related AE, n subjects” value (healthy subjects; single dose 75 mg (N = 6)) was 0 n. The “Headache, treatment-related AE, [events]” value (healthy subjects; single dose 75 mg (N = 6)) was 1 [1] events, the “Headache, treatment-related AE, n subjects” value (healthy subjects; single dose 75 mg (N = 6)) was 1 [1] n and the “Insomnia, treatment-related AE, [events]” value (healthy subjects; single dose 75 mg (N = 6)) was 1 [1] events. For the same molecule, the “Insomnia, treatment-related AE, n subjects” value (healthy subjects; single dose 75 mg (N = 6)) was 1 [1] n.
